Assay results from article PMC5686105, “The industrial anaerobe Clostridium acetobutylicum uses polyketides to regulate cellular differentiation” (Nature Communications, 2017).

How the values were obtained:
PKS (ca_c3355) [1] = target: T1, PKS (ca_c3355) (Clostridium acetobutylicum, UniProt Q97DW5); assay: in vitro product assay by LC-MS; format: biochemical; conditions: 100 mM phosphate pH 7.0, 2 mM malonyl-CoA, 2 mM NADPH, 8 uM PKS, room temperature, 2 h; KR domain reductant
PKS (ca_c3355) [2] = target: T1, PKS (ca_c3355); assay: in vitro product assay by LC-MS; […] acyl loading by SDS-PAGE autoradiography; format: biochemical; conditions: 100 mM phosphate pH 7.0, 2 mM malonyl-CoA, 8 uM PKS, room temperature, 2 h; covalent acyl-S-enzyme intermediate seen with labelled compound (made in situ by MatB, pH 8.0, 25 °C)

T1 sequence (Q97DW5 1-1795): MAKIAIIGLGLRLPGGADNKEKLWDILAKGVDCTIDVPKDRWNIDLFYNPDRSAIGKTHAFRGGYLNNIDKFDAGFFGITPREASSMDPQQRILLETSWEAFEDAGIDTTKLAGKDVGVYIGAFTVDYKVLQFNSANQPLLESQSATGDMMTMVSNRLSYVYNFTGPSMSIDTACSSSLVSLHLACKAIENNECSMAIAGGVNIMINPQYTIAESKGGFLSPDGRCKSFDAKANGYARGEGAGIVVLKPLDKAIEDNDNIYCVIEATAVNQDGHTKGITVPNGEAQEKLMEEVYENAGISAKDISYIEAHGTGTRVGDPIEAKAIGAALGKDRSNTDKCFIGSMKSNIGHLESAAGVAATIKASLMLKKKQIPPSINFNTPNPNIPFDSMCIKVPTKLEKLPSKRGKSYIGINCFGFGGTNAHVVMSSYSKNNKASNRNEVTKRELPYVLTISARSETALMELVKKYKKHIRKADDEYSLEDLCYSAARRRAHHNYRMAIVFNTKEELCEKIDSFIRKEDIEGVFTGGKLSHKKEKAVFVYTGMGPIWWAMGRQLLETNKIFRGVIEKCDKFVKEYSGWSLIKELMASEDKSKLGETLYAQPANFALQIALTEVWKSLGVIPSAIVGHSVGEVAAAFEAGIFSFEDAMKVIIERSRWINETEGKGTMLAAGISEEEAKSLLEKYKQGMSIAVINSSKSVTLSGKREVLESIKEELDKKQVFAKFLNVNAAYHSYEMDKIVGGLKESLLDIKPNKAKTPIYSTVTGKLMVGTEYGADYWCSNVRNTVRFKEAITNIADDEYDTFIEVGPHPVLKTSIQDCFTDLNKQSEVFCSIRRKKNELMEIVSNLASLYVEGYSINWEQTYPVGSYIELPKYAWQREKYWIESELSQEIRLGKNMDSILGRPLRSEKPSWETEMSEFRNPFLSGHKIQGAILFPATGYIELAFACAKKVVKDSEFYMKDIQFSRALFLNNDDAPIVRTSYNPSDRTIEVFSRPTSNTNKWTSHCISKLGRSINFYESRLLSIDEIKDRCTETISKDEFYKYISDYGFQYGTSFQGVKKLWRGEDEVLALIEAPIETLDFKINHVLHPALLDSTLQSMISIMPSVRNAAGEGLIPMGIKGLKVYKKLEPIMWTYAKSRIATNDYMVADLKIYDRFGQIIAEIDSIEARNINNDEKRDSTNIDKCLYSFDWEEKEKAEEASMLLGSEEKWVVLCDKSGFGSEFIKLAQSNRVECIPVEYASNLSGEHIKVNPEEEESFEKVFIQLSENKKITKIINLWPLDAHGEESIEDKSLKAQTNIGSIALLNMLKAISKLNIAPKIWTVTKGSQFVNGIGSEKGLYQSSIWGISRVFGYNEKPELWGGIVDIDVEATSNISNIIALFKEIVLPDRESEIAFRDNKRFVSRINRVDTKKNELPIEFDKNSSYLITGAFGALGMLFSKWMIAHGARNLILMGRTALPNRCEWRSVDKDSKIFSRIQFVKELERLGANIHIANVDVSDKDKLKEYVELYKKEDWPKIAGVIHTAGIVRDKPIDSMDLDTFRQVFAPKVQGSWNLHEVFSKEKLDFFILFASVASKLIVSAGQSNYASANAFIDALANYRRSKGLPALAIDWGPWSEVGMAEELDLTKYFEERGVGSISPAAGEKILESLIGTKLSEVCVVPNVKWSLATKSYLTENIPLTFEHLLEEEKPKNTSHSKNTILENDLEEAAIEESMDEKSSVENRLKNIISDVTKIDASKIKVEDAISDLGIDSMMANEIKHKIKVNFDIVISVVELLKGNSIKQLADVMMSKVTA

Row | Compound | in vitro product assay by LC-MS (PKS (ca_c3355) [1]) | in vitro product assay by LC-MS; 14C acyl loading by SDS-PAGE autoradiography (PKS (ca_c3355) [2])
1 | NC(=O)C1=CN([C@@H]2O[C@H](COP(=O)(O)OP(=O)(O)OC[C@H]3O[C@@H](n4cnc5c(N)ncnc54)[C@H](OP(=O)(O)O)[C@@H]3O)[C@@H](O)[C@H]2O)C=CC1 [NADPH] | Addition of NADPH to this reaction enabled function of the KR domain | –
2 | CC(C)(COP(=O)(O)OP(=O)(O)OC[C@H]1O[C@@H](n2cnc3c(N)ncnc32)[C@H](O)[C@@H]1OP(=O)(O)O)[C@@H](O)C(=O)NCCC(=O)NCCSC(=O)CC(=O)O [malonyl-CoA] | – | in vitro reconstitution of the activity of PKS with malonyl-CoA showed a dominant product
